Measured values as given in US8894993B2, “Mitochondria-targeted antioxidants” (Natreon Inc., priority 2006, dated 2014).

Columns and labels:
[1] = Inhibition of CoQ-CoQH2 aberrant metabolite formation during red-ox recycling, HPLC; assay type: physicochemical; conditions: in vitro
Description: Methanolic solution of coenzyme Q10 (1 mg/ml) was reduced by NaBH4 to pH 8 when the yellow solution became colorless. About 1 mg of 3,8-(OH)2-DBP was added to the solution and the mixture was analyzed by HPLC at different time intervals (0-80 min). A control CoQ10, without 3,8-(OH)2-DBP, was prepared similarly and analyzed at different time intervals (0-80 min).
Column—NovaPak RP C18 [250×4 mm]
(§1) Mobile phase—Methanol:Acetonitrile:Ethanol 30:30:40
Detection—PDA 275 nm for CoQ10
Reduced CoQ10 (CoQH2) has a tendency to rapidly autoxidize in the presence of air. […] The aberrant metabolites increased rapidly with time (Table 10).

[2] = test system: stress-induced lipid peroxidation of mouse liver mitochondria; test: Stress-induced lipid peroxidation of mouse liver mitochondria (thiobarbituric acid reaction); assay type: in vivo, Swiss albino mice; conditions: oral each 5 mg/Kg b.w. per day for 5 days, hypoxic stress, control 0.495
Description: Swiss albino mice (20±g) were fed orally with—(a) 3,8-(OH)2-DBP; (b) CoQ10; (c) a combination of 3,8-(OH)2-DBP and CoQ10 and (d) 3,8-(OH)2-DBP and CoQ10 in a clathrated form with fusoms (each 5 mg/Kg b.w.), per day, for 5 days. The animals were subjected to hypoxic stress for 1 hour each day for 3 days from the 3rd day of the experiment. After the stipulated time-period, brain and liver of the animals were collected and mitochondria from the liver were separated as described previously (Liu Y, Deng F, Zhao R and Qu S, Chemosphere, 40(8):851-854, 2000). Lipid peroxidation in brain and liver-mitochondria was estimated by the method of Ohkawa et al. (Ohkawa H, Ohishi N and Yagi K, Assay for lipid peroxides in animal tissues by thiobarbituric acid reaction. Anal. Biochem., 95:351-358, 1979).

[3] = Stability of reduced CoQ10 (CoQH2) by 3,8-(OH)2-DBP at different pH, HPLC; assay type: physicochemical
[4] = test system: Blood levels of ATP and energy related indices; test: Blood ATP and energy related indices in mice after restraint stress; assay type: in vivo, Swiss albino mice; conditions: 25 mg/Kg p.o. 7 days
Description: (§2) Swiss albino mice (20±2 g) were fed orally with—(a) 3-OH-DBP and (b) 3,8-(OH)2-DBP (each 25 mg/Kg b.w. per day, for 7 days). In case of the controls, only vehicle (0.8% carboxymethyl cellulose in water) was administered for seven days of the experiment. All the animals of all the groups were subjected to restraint stress (for 60 minutes) on the seventh day of the experiment, 2 hours after drug administration, according to a published method [Figueiredo, H. F., Bodie, B. L., Tauchi, M., Dolgas, C. M. and Herman, J. P. 2003. Endocrinology, 144, 5249-5258]. The model was selected in the present experiment, because restraint stress is a widely used model of acute oxidative stress. Immediately after being exposed to stress, the animals were sacrificed, blood was collected for analysis by HPLC of ATP and related nucleotides [Smolenska, Z., Kaznowska, Z., Zarowny, D., Simmonds, H. A. and Smolenski, R. T. 1999. Rheumatology, 38, 997-1002; Komarova, S. V., Mosharov, E. V., Vitvitsky, V. M. and Ataullakhanov, F. I. 1999. Blood Cell Mol. Dis., 25(13), 170-179; Marquardt, D. L., Gruber, H. E. and Wasserman, S. I. 1984. Proc. Natl. Acad. Sci., 81, 6192-6196], and liver was collected for measurement of superoxide dismutase and catalase activities [Zielinski, S, and Pörtner, H. 2000. Comparative Biochem. Physiol. Part B, 125, 147-[60]. AEC (adenylate energy charge) was calculated according to the method of Atkinson and Walton [Atkinson D E & Walton G M, Adenosine triphosphate conservation in metabolic regulation, J Biol Chem, 242 (1967) 3239] and TAN (total adenine nucleotides) was calculated according to an established method [Spencer M K & Katz A, Role of glycogen in control of glycolysis and IMP formation in human muscle during exercise, Am J Physiol, 260 (1991) E859].

[5] = test system: Catalase activity in liver; test: Catalase activity in liver of mice after restraint stress; assay type: in vivo, Swiss albino mice; conditions: 25 mg/Kg p.o. 7 days, control 3.9
Description: as §2, with “Rheumatology, 38, 997-1002; Komarova, S. V., Mosharov, E. V., Vitvitsky, V. M. and Ataullakhanov, F. I. 1999. Blood Cell Mol. Dis., 25(13), 170-179; Marquardt, D. L., Gruber, H. E. and Wasserman, S. I. 1984. Proc. Natl. Acad. Sci., 81, 6192-6196], and liver was collected for measurement of superoxide dismutase and catalase activities [Zielinski, S, and Pörtner, H. 2000. Comparative Biochem. Physiol. Part B, 125, 147-[60].” left out, “E859]. […]” for “E859].”

[6] = Stability of reduced CoQ10 (CoQH2) by 3,8-(OH)2-DBP at different pH, HPLC; assay type: physicochemical; remark: listed apart in the source
Description: Two mg of solid CoQ10 (SRL, India), in an airtight vial was dissolved in 1 ml of methanol. After thorough vortexing, 5 mg of solid NaBH4 (Merck India) was added, 1 mg at a time, to the yellow colored solution of CoQ10 in methanol and kept in an ice-bath for a few minutes. The vial was kept shut to avoid contact with air but opened occasionally to avoid generation of pressure inside due to accumulation of hydrogen. After the reduction reaction, a clear colorless solution was obtained to which methanolic solution of 3,8-(OH)2-DBP with a concentration of 1 mg/ml (>90% pure) was added in a ratio of 1:1 to obtain a final concentration of the mixture—reduced CoQ10 […] DBP 0.5 mg/ml. This solution was analyzed by HPLC for reduced CoQ10 content at different time intervals. A control was prepared in similar fashion except that no DBP was added. The pH of the solutions was determined to be 8 using pH paper. To obtain solutions of reduced CoQ10 with pH 7 and pH 3, aliquots of concentrated HCl were added to the methanolic solution of reduced CoQ10 at pH 8. Afterwards, a solution of DBP was added and analysis by HPLC at different time intervals was conducted, as before.
as §1
Detection—PDA 290 nm for reduced CoQ10

[7] = test system: Superoxide dismutase (SOD) activity in liver; test: Superoxide dismutase activity in liver of mice after restraint stress; assay type: in vivo, Swiss albino mice; conditions: 25 mg/Kg p.o. 7 days, control 0.6
Description: as §2, with “Rheumatology, 38, 997-1002; Komarova, S. V., Mosharov, E. V., Vitvitsky, V. M. and Ataullakhanov, F. I. 1999. Blood Cell Mol. Dis., 25(13), 170-179; Marquardt, D. L., Gruber, H. E. and Wasserman, S. I. 1984. Proc. Natl. Acad. Sci., 81, 6192-6196], and liver was collected for measurement of superoxide dismutase and catalase activities [Zielinski, S, and Pörtner, H. 2000. Comparative Biochem. Physiol. Part B, 125, 147-[60].” left out, “E859]. […]” for “E859].”

O=c1oc2cc(O)ccc2c2ccc(O)cc12 [3,8-(OH)2-DBP, 3,8-dihydroxydibenzo-α-pyrone]
aberrant metabolite formation of CoQH2 in the presence of 3,8-(OH)2-DBP, in words [1]: did not form any aberrant metabolite for a long time
Relative percentage of aberrant metabolites in presence of 3,8-(OH)2-DBP ([1]; pH 8, 0 minutes): 0%
Relative percentage of aberrant metabolites in presence of 3,8-(OH)2-DBP ([1]; pH 8, 40 minutes): 0%
Relative percentage of aberrant metabolites in presence of 3,8-(OH)2-DBP ([1]; pH 8, 80 minutes): 0%
OD Values at 532 nm (lipid peroxidation) [2]: 0.395
Regenerated CoQ10 in presence of 3,8-(OH)2-DBP ([3]; autoxidation of CoQH2, pH 8, 80 min): 151.28 µg/mL
Regenerated CoQ10 in presence of 3,8-(OH)2-DBP ([3]; autoxidation of CoQH2, pH 8, 100 min): 202.31 µg/mL
ADP ([4]; mean ± SEM of 6, control 0.14 ± 0.02): 0.09 ± 0.01 µM
ATP ([4]; mean ± SEM of 6, control 0.67 ± 0.03): 0.64 ± 0.05 µM
TAN ([4]; mean ± SEM of 6, control 0.76 ± 0.03): 0.76 ± 0.06 µM
AEC ([4]; mean ± SEM of 6, control 0.89 ± 0.01): 0.90 ± 0.01
ATP/ADP ratio ([4]; mean ± SEM of 6, control 4.90 ± 0.32): 6.96 ± 0.49
Catalase activity in liver [5]: 3.4 U/mg tissue
Regenerated CoQ10 in presence of 3,8-(OH)2-DBP ([6]; autoxidation of CoQH2, pH 8, 0 min): 0 µg/mL
Regenerated CoQ10 in presence of 3,8-(OH)2-DBP ([6]; autoxidation of CoQH2, pH 8, 20 min): 10.63 µg/mL
Regenerated CoQ10 in presence of 3,8-(OH)2-DBP ([6]; autoxidation of CoQH2, pH 8, 40 min): 37.37 µg/mL
Regenerated CoQ10 in presence of 3,8-(OH)2-DBP ([6]; autoxidation of CoQH2, pH 8, 60 min): 99.55 µg/mL
Reduced CoQ10 remaining in presence of DBP ([6]; pH 3, 0 hour): 100.00%
Reduced CoQ10 remaining in presence of DBP ([6]; pH 3, 48 hour): 79.27%
Reduced CoQ10 remaining in presence of DBP ([6]; pH 3, 72 hour): 73.91%
Reduced CoQ10 remaining in presence of DBP ([6]; pH 7, 0 hour): 100.00%
Reduced CoQ10 remaining in presence of DBP ([6]; pH 7, 48 hour): 10.79%
Reduced CoQ10 remaining in presence of DBP ([6]; pH 7, 72 hour): 6.33%
Reduced CoQ10 remaining in presence of DBP ([6]; pH 8, 0 min, DBP 0.5 mg/ml): 100.00%
Reduced CoQ10 remaining in presence of DBP ([6]; pH 8, 40 min, DBP 0.5 mg/ml): 93.44%
Reduced CoQ10 remaining in presence of DBP ([6]; pH 8, 60 min, DBP 0.5 mg/ml): 80.21%
Reduced CoQ10 remaining in presence of DBP ([6]; pH 8, 80 min, DBP 0.5 mg/ml): 66.57%
Reduced CoQ10 remaining in presence of DBP ([6]; pH 8, 100 min, DBP 0.5 mg/ml): 51.85%
protection of reduced CoQ10 from oxidative degradation, in words ([6]; pH range 3 to 8): significantly protects
SOD activity in liver [7]: 0.98 U/gm tissue
